Values after ≈ are worked out from the molar mass of the structure shown. Active and inactive are the calls of the source. The rule behind the calls is not given here.
System: Candida albicans
Assay: Antifungal activity against Candida albicans B311 after 24 to 48 hrs by twofold serial dilution method
Format: functional

Cc1ccnc2c1-c1ccccc1C2=O
MIC: 3.12 µg/mL (≈ 16 µM)

Cc1ccnc2c1C(=O)c1ccccc1-2
Activity: Active

C[C@@H]1[C@H](O)[C@@H](C)/C=C/C=C/C=C/C=C/C=C/C=C/C=C/[C@H](O[C@@H]2O[C@H](C)[C@@H](O)[C@H](N)[C@@H]2O)C[C@@H]2O[C@](O)(C[C@@H](O)C[C@@H](O)[C@H](O)CC[C@@H](O)C[C@@H](O)CC(=O)O[C@H]1C)C[C@H](O)[C@H]2C(=O)O [AMPHOTERICIN B]
MIC: 0.39 µg/mL (≈ 0.422 µM)

c1ccc2c(c1)-c1nccc3ccnc-2c13 [EUPOLAURIDINE]
MIC: 1.56 µg/mL (≈ 7.64 µM)
